Experimental data taken from the supplement of paper PMC10627819.

Key:
Assay in all cases: fitness (endpoint OD595 vs no drug) (fraction); higher = more growth
S. aureus Newman = tested on: S. aureus Newman
How it was run: (§1)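 Volumes were 30 µl per well, or 55 µl for S. pneumoniae, in 384-well plates inoculated at OD595 0.01. Media were TSB, LB Lennox or CY at 37 °C, and OD595 was read every 30 min for 14 h with first-reading background subtraction. Fitness is the ratio of optical density at stationary-phase entry to the robust mean of no-drug controls. That ratio is capped at 1.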

S. pneumoniae D39V = tested on: S. pneumoniae D39V
How it was run: as §1

B. subtilis 168 = tested on: B. subtilis 168
How it was run: as §1

CC1=C(C(=O)O)N2C(=O)[C@@H](NC(=O)[C@H](N)c3ccccc3)[C@H]2SC1 [Cephalexin] + CO[C@@]12[C@H](COC(N)=O)C3=C(C(=O)C(C)=C(N)C3=O)N1C[C@@H]1N[C@@H]12 [Mitomycin C]
fitness
Conditions | first compound 0.25 µg/mL | first compound 0.5 µg/mL | first compound 1 µg/mL | first compound 2 µg/mL | first compound 4 µg/mL
S. aureus Newman, partner 0.0156 µg/mL | 0.804 | 0.761 | 0.891 | – | –
S. aureus Newman, partner 0.0312 µg/mL | 0.732 | 0.724 | 0.705 | – | –
S. aureus Newman, partner 0.0625 µg/mL | 0.614 | 0.577 | 0.655 | – | –
S. pneumoniae D39V, partner 0.001075 µg/mL | – | – | 0.662 | 0.188 | 0.0487
S. pneumoniae D39V, partner 0.00215 µg/mL | – | – | 0.639 | 0.146 | 0.0215
S. pneumoniae D39V, partner 0.0043 µg/mL | – | – | 0.604 | 0.173 | 0.05

fitness, S. pneumoniae D39V, one replicate
Conditions | first compound 0.125 µg/mL | first compound 0.25 µg/mL | first compound 0.5 µg/mL
partner 0.002 µg/mL | 0.806 | 0.757 | 0.732
partner 0.004 µg/mL | 0.761 | 0.723 | 0.686
partner 0.008 µg/mL | 0.607 | 0.615 | 0.608

CC[C@H]1OC(=O)[C@H](C)[C@@H](O[C@H]2C[C@@](C)(OC)[C@@H](O)[C@H](C)O2)[C@H](C)[C@@H](O[C@@H]2O[C@H](C)C[C@H](N(C)C)[C@H]2O)[C@](C)(O)C[C@@H](C)CN(C)[C@H](C)[C@@H](O)[C@]1(C)O [Azithromycin] + O=C(O)[C@H]1/C(=C/CO)O[C@@H]2CC(=O)N21 [Clavulanic acid]
fitness, B. subtilis 168
Conditions | partner 1.5 µg/mL | partner 3 µg/mL | partner 6 µg/mL
first compound 0.25 µg/mL | 0.939 | 0.911 | 0.793
first compound 0.5 µg/mL | 0.805 | 0.788 | 0.727

fitness, one replicate
Conditions | partner 0.03125 µg/mL | partner 0.0625 µg/mL | partner 0.125 µg/mL | partner 1.5 µg/mL | partner 3 µg/mL | partner 6 µg/mL
B. subtilis 168, first compound 2 µg/mL | – | – | – | 0.0793 | 0.054 | 0.0121
S. aureus Newman, first compound 0.125 µg/mL | 0.962 | 0.973 | 0.92 | – | – | –
S. aureus Newman, first compound 0.25 µg/mL | 0.902 | 0.998 | 0.893 | – | – | –
S. aureus Newman, first compound 0.5 µg/mL | 0.811 | 0.799 | 0.834 | – | – | –

O=C(O)[C@H]1/C(=C/CO)O[C@@H]2CC(=O)N21 [Clavulanic acid] + N[C@@H]1CONC1=O [Cycloserine D]
fitness, B. subtilis 168
Conditions | first compound 1.5 µg/mL | first compound 3 µg/mL | first compound 6 µg/mL
partner 0.125 µg/mL | 0.903 | 0.909 | 0.792
partner 0.25 µg/mL | 0.957 | 0.861 | 0.801
partner 0.5 µg/mL | 0.946 | 0.915 | 0.832

fitness, S. aureus Newman, one replicate
Conditions | first compound 0.03125 µg/mL | first compound 0.0625 µg/mL | first compound 0.125 µg/mL
partner 0.375 µg/mL | 0.902 | 0.954 | 0.885
partner 0.75 µg/mL | 0.884 | 0.942 | 0.888
partner 1.5 µg/mL | 0.899 | 0.858 | 0.897

O=C(O)[C@H]1/C(=C/CO)O[C@@H]2CC(=O)N21 [Clavulanic acid] + CO/N=C(\C(=O)N[C@@H]1C(=O)N2C(C(=O)[O-])=C(C[N+]3(C)CCCC3)CS[C@H]12)c1csc(N)n1 [Cefepime]
fitness, S. aureus Newman, one replicate
Conditions | first compound 0.03125 µg/mL | first compound 0.0625 µg/mL | first compound 0.125 µg/mL
partner 0.125 µg/mL | 0.965 | 0.94 | 0.881
partner 0.25 µg/mL | 0.943 | 0.914 | 0.884
partner 0.5 µg/mL | 0.946 | 0.871 | 0.869

fitness, S. pneumoniae D39V
Conditions | partner 0.007 µg/mL | partner 0.0078 µg/mL | partner 0.014 µg/mL | partner 0.0155 µg/mL | partner 0.028 µg/mL | partner 0.031 µg/mL
first compound 0.5 µg/mL | 0.996 | 0.997 | 0.997 | 0.957 | 0.885 | 0.501
first compound 1 µg/mL | 0.991 | 0.955 | 0.988 | 0.91 | 0.817 | 0.456
first compound 2 µg/mL | 0.902 | 0.778 | 0.904 | 0.681 | 0.633 | 0.199
